This note sets out measurements from patent publication US20230008571A1, “CYCLIC COMPOUNDS FOR TREATING CARDIOVASCULAR DISORDERS AND WOUNDS” (University of South Florida, priority 2021, published 2023).

This assay has as its target T1, EGFR (Homo sapiens, UniProt P00533).
T1 construct: A549 cells were chosen due to their elevated expression of EGFR; endogenous in cells; host or cells: A549
The experiment in a line: Western blot of EGF-induced EGFR phosphorylation in A549 cells. The assay is classed as cell-based. As for the experimental part:
A549 cells were chosen due to their elevated expression of EGFR.
A549 cells were seeded into a 6-well plate at a concentration of 1×10^5 cells/well. After 12 h attachment at 37° C. and 5% CO2, the cells were starved overnight in serum-reduced DMEM followed by treatment with different concentration of M-2-2 for 4 h. […] Subsequently, the cells were incubated on ice for 10 min and centrifuged at 14,000×g at 4° C. for 10 min. […] The experiments were conducted in triplicates and repeated for three times.
On the technique in general: A western blot detects proteins with antibodies after separation by electrophoresis.

T1 sequence (P00533 25-1210): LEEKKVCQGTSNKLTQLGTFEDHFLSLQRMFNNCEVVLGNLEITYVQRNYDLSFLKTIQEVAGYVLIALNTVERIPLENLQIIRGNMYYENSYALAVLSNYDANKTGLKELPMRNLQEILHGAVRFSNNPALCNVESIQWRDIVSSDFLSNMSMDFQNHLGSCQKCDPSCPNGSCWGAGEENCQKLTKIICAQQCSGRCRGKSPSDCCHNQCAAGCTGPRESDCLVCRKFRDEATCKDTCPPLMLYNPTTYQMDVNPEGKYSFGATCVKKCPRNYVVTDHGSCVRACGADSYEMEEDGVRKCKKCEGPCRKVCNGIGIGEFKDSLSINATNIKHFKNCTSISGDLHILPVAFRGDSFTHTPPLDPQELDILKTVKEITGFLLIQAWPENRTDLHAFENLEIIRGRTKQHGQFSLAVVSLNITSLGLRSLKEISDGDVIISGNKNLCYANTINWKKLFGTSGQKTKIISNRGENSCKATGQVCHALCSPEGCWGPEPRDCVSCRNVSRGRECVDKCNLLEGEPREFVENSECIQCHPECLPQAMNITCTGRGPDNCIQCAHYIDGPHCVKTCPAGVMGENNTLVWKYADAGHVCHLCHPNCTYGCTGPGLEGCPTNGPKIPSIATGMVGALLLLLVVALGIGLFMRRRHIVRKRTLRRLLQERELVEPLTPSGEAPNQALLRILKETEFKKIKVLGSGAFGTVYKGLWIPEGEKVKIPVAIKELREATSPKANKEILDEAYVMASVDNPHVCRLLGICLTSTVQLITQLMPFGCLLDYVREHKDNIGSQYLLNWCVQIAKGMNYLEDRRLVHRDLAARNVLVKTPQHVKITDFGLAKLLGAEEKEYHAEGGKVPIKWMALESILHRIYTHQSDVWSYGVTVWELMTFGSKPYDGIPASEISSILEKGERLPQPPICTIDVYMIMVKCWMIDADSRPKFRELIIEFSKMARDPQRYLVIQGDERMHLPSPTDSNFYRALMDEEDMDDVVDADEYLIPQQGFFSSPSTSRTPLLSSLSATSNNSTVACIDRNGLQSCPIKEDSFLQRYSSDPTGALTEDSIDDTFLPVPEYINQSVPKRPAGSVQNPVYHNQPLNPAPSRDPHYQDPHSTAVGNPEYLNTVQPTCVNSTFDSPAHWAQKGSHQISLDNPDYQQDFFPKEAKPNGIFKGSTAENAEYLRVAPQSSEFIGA

For the compound `CC[C@H]1CN(C(=O)CCC2CCCCC2)CC(=O)N[C@@H](CC)CN(C(=O)Cc2ccc3c(c2)OCO3)CC(=O)N[C@@H](CC(C)C)CN(CC(N)=O)C(=O)CCSCc2ccc(cc2)C(=O)N[C@@H](CC(C)C)CN(C(=O)Cc2ccc3c(c2)OCO3)CC(=O)N1` [M-2-2], the “effect on phosphorylation level of EGFR (P-EGFR) in the presence of EGF” value (starved A549 cells, 20 μM, 4 h pretreatment, then 100 ng/mL EGF, western blot, P-EGFR/GAPDH) is listed as “enhance the activation of EGFR”. In addition, the “effect on downstream signal transduction of EGF stimulated EGFR” value (western blot with anti-phosphorylated AKT and ERK, concentration not given) was “enhance”.
